Results published in patent publication US8013158B2, “Crystalline forms of topotecan hydrochloride and processes for making the same” (Scinopharm Taiwan Ltd., priority 2007, dated 2011).
“Also recorded” adds a separate entry of the source.

Experiments:
[1] = Stability of crystalline forms held at room temperature, purity by HPLC; type: physicochemical; conditions: for Purity / Stability at room temperature: HPLC; for Stability at room temperature: over twenty days at room temperature
Excerpt: The stabilities of some of the crystalline forms have been tested under various conditions. HPLC was used to determine the degree of degradation of topotecan hydrochloride over time.
The samples with different forms were held at room temperature for a specific period. We tested the purities of these samples by HPLC and observed the changes of their purities.
The changes to the purities of Forms D to I are summarized as follows: […]

[2] = Experiment 2: long-time stirring in ethyl acetate at room temperature, resulting crystalline form; type: physicochemical
Experimental: Topotecan hydrochloride (4.0 g Form A or Form D) is stirred in ethyl acetate (40 mL) for a long time (40, 80, or 200 hours) at room temperature. The solids are filtered and washed with cool ethyl acetate. Dry under vacuum at room temperature.

[3] = room temperature, duration 0 hour, hydrochloride
[4] = room temperature, duration 3 days, hydrochloride
[5] = room temperature, duration 7 days, hydrochloride
[6] = room temperature, duration 20 days, hydrochloride
[7] = room temperature, duration 36 days, hydrochloride
[8] = room temperature, duration 32 days, hydrochloride

Compound	Purity [1, 3]	Purity [1, 4]	Purity [1, 5]	Purity [1, 6]	further results
CC[C@@]1(O)C(=O)OCc2c1cc1n(c2=O)Cc2cc3c(CN(C)C)c(O)ccc3nc2-1.Cl [Form D, topotecan hydrochloride]	99.32%	99.21%	99.17%	99.08%	Stability at room temperature compared with other Forms ([1]; room temperature): better than other Forms; Purity [1, 7]: 99.43%; Stability on long time stirring compared with Form A ([2]; long time stirring in ethyl acetate): more stable than Form A; Crystalline form after stirring ([2]; stirred in ethyl acetate 40 h at room temperature, hydrochloride): Form D → D; Crystalline form after stirring ([2]; stirred in ethyl acetate 80 h at room temperature, hydrochloride): Form D → D; Crystalline form after stirring ([2]; stirred in ethyl acetate 200 h at room temperature, hydrochloride): stable; also recorded: Form D → D
CC[C@@]1(O)C(=O)OCc2c1cc1n(c2=O)Cc2cc3c(CN(C)C)c(O)ccc3nc2-1.Cl [Form A, topotecan monohydrochloride pentahydrate, reference compound]	–	–	–	–	Crystalline form after stirring ([2]; stirred in ethyl acetate 40 h at room temperature, listed as From A): From A → A; Crystalline form after stirring ([2]; stirred in ethyl acetate 80 h at room temperature): transform to Form E; also recorded: Form A → E; Crystalline form after stirring ([2]; stirred in ethyl acetate 200 h at room temperature): Form A → E
CC[C@@]1(O)C(=O)OCc2c1cc1n(c2=O)Cc2cc3c(CN(C)C)c(O)ccc3nc2-1.Cl [Form G, topotecan hydrochloride]	99.11%	99.06%	99.00%	98.88%	Purity [1, 8]: 99.06%
CC[C@@]1(O)C(=O)OCc2c1cc1n(c2=O)Cc2cc3c(CN(C)C)c(O)ccc3nc2-1.Cl [Form E, topotecan hydrochloride]	98.99%	99.27%	99.31%	99.29%	Purity [1, 7]: 99.30%
CC[C@@]1(O)C(=O)OCc2c1cc1n(c2=O)Cc2cc3c(CN(C)C)c(O)ccc3nc2-1.Cl [Form F, topotecan hydrochloride]	99.94%	99.92%	–	–	Purity ([1]; room temperature, duration 16 days): 99.91%; Purity [1, 8]: 99.91%
CC[C@@]1(O)C(=O)OCc2c1cc1n(c2=O)Cc2cc3c(CN(C)C)c(O)ccc3nc2-1.Cl [Form I, topotecan hydrochloride]	99.70%	99.65%	99.56%	99.56%	Stability at room temperature [1]: substantially stable
CC[C@@]1(O)C(=O)OCc2c1cc1n(c2=O)Cc2cc3c(CN(C)C)c(O)ccc3nc2-1.Cl [Form H, topotecan hydrochloride]	99.92%	99.90%	99.92%	99.89%	Stability at room temperature [1]: substantially stable
